Molecular target: T1, VDR (Homo sapiens, UniProt P11473)
T1 construct: expressed in transfected cells; host or cells: COS-7
T1 sequence (P11473 1-427): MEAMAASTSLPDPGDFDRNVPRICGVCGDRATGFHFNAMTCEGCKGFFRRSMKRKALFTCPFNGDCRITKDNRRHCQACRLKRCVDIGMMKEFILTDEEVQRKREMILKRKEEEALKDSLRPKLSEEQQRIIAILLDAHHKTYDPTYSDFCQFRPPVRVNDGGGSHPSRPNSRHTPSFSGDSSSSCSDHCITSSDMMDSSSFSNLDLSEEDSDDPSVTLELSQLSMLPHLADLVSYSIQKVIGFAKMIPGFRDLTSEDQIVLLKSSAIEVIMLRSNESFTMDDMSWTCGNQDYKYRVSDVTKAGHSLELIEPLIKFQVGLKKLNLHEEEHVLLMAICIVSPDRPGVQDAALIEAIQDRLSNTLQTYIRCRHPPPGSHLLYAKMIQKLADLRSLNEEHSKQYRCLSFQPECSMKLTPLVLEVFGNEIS
Assay: Transient transfection luciferase reporter, VDR transactivation in COS-7 cells
Format: cell-based
Conditions: TSA 3 μM, COS-7 cells
Procedure: All cell lines were cultured under the recommended conditions. COS-7 cells grown in […] in DMEM without phenol red, supplemented with 10% FBS were transfected in medium without serum with lipofectamine 2000 (Invitrogen, Burlington, Ont.) with 100 ng of nuclear receptor expression vectors as indicated, 200 ng of TIF-2 or TIF-2.1, as indicated, 250 ng of reporter plasmid, 250 ng of infemal control vector pCMV-βgal, and various concentrations of LCoR/pSG5 or LCoR-LSKAA/pSG5 expression vectors and pSG5 carrier. Medium was replaced 24 h after transfection by a medium containing charcoal-stripped serum and ligand (100 nM) and TSA (3 μM) for 18 h, as indicated. Cells were harvested in 200 […] of reporter lysis buffer (Promega).
COS-7 cells were cotransfected with expression vectors for ERα HEG0 (A and C) or GR (D) or PR (F) or VDR (H), ERE3-TATA-pXP2 (A and C), GRE5/pXP2 (D and F) or VDRE3tk/pXP2 (H) luciferase reporter vectors, pCMV-β-gal as internal control, and LCoR/pSG5 or LSKAA/pSG5 expression vectors as indicated. Cells were treated with 10^−7M of hormones (solid bars) or vehicle (open bars). Normalized luciferase activities (RLU) are the means±SEM from at least 3 experiments. […] Cells were transfected as in FIG. 5A with LCoR, TIF-2 or TIF2.1 as indicated. […]

CC(/C=C/C(=O)NO)=C\[C@@H](C)C(=O)c1ccc(N(C)C)cc1 [TSA, trichostatin A]
effect on LCoR repression of VDR function: little or no effect

Reference: US20070054353A1, “Nuclear receptor transcriptional corepressor and uses thereof” (priority 2002, published 2007)
